Source: US20090203776A1, “METHODS OF USING MENTHOL PROPYLENEGLYCOL-CARBONATE AND ANALOGS THEREOF FOR PRODUCING ANTI-INFLAMMATORY AND ANTI-ANGIOGENIC EFFECTS” (priority 2004, published 2009)

Experiments:
[1] = tested on: TPA-induced inflammatory response (mouse ear edema); assay: TPA-induced mouse ear edema, topical application; type: in vivo, mice; conditions: for anti-inflammatory effect (in words): TPA-induced inflammatory response, topical; for Anti-inflammatory Effect (% of control): reduction in ear thickness vs control group
Method: Edema was induced in mice by topical application of 10 μl of TPA (Tetradecnoylphorbol acetate) in acetone (2.5 μg/ear) to both the inner and outer surface of one ear of each mouse used in the experiment. Each test compound, diluted with acetone to a concentration of 10% was applied topically to the inflamed mouse ear immediately after TPA application, so as to deliver 2.5 mg/ear. The reference drug, indomethacin (0.5 mg/ear), was administered as a positive control. The thickness of each ear was measured before treatment and 4 hours after induction of inflammation, using a micrometer (Mitutoyo Co.). Anti-inflammatory effect was expressed as the reduction in ear thickness with respect to the control group.

[2] = tested on: aortic rings (angiogenic sprouting / microvessel formation); assay: ex vivo rat aortic ring angiogenesis assay; type: cell-based, Sprague Dawley rats; conditions: for % Inhibition (microvessel density) / Microvessel Density (pixel^2): day 10; for Microvessel Density (pixel^2): 5 aortic rings, ECGS as inducer; for anti-angiogenic effect (in words): rat aortic ring assay, 1, 10, and 100 μM
Description: The effect of racemic menthol propyleneglycol-carbonate on angiogenesis was studied by culturing aortic explants in three-dimensional matrix gels according to the procedure of Kruger and Figg (Kruger E. A. and Figg, W. D. Protein Binding Alters the Activity of Suramin, Carboxyamidotriazole, and UCN-01 in an ex Vivo Rat Aortic Ring Angiogenesis Assay Clinical Cancer Research 7:1867-1872, 2001). Thoracic aortas were excised from 8-week-old mail Sprague Dawley rats and the fibroadipose tissue was removed. The aortas were sectioned into 1-mm-long cross-sections, rinsed with Human Endothelial-SFM (GIBCO), placed on the Matrigel-coated wells, covered with additional 50 μl Matrigel, and allowed to gel for more than 30 min at 37° C., 5% CO2. All the rings were cultured in Human Endothelial-SFM (GIBCO) supplemented with […] of ECGS (Endothelial Cell Growth Supplement, Sigma) as an angiogenesis inducer. Racemic menthol propylene-carbonate diluted with enthanol was added to the culture medium at final concentrations of 1, 10, and 100 μM. Ethanol alone (1%) was added to the culture medium as a vehicle control. All assays were performed by using 5 aortic rings per sample. Aortic rings were photographed on day 10. The area of angiogenic sprouting was calculated using Image-Pro Plus software (Media Cybernetics). Microvessel densities are reported in square pixels.

[3] = tested on: Ha-CaT cells; assay: cell cytotoxicity assay, XTT; type: cell-based; conditions: for Cell Viability (%): 48 hours, Ha-CaT
Method: 5×10^3 Ha-CaT cells were plated in each well of 96 well plates and racemic menthol propyleneglycol-carbonate was added at various concentrations. The plates were incubated for another 48 hours and the viable cells were measured by XTT Cell Proliferation Kit (Roche). More than 70% of Ha-CaT cells were viable even at high concentration of 100 μM.

[4] = tested on: HUVE (Human Umbilical Vein Endothelial) cells; assay: HUVE cell proliferation in the presence of bFGF, XTT; type: cell-based; conditions: 48 hours; for Proliferation (%): bFGF only = 100, no bFGF = 0; for Average (relative cell number, XTT): with bFGF
Method: HUVE (Human Umbilical Vein Endothelial) cells were isolated from human umbilical cord veins by a method of Jaffe et al. (Jaffe, E. A., Nachman, R. L., Becker, C. G., and Minick, C. R. Culture of Human endothelial cells derived from umbilical veins. J. Clin. Invest. 52: 2745-2756, 1973). HUVE cells were confirmed by immunostaining with antibody against factor VIII. The cells were grown in M199 medium (Gibco BRL, Grand Island, N.Y.) supplemented with 10% fetal bovine serum, 100 units/mL penicillin, 100 μg/mL streptomycin, 50 μg/mL endothelial cell growth supplement, and 5 units/mL heparin at 37° C. in an atmosphere of 5% CO2-95% air.
1×10^4 HUVE cells were plated in each well of 96 well plates and five different concentrations ranging from 1 to 100 of racemic menthol propyleneglycol-carbonate were tested in the presence of bFGF used as maximum proliferation control. Cells were cultured for an additional 48 hours, and relative cell numbers in each well were determined by XTT Cell Proliferation Kit (Roche).

[5] = 2.5 mg/ear topical (10% in acetone), 4 hours after TPA 2.5 μg/ear

## CC1CCC(C(C)C)C(OC(=O)OCCCCCCCCCO)C1 (centres unmarked) [menthyl-9-hydroxynonyl-carbonate]
[1]
  anti-inflammatory effect (in words): Satisfactory anti-inflammatory effects
[1]; [5]
  Anti-inflammatory Effect (% of control): 45 % of control

## CC1CCC(C(C)C)C(OCC(O)CO)C1 (centres unmarked) [menthoxy-propane-1,2-diol]
[1]
  anti-inflammatory effect (in words): Satisfactory anti-inflammatory effects
[1]; [5]
  Anti-inflammatory Effect (% of control): 27 % of control

## CC(O)COC(=O)OC1CC(C)CCC1C(C)C (racemic) [racemic menthol propyleneglycol-carbonate]
[1]
  anti-inflammatory effect (in words): Satisfactory anti-inflammatory effects
[1]; [5]
  Anti-inflammatory Effect (% of control): 23 % of control
[2]; 1 uM
  % Inhibition (microvessel density): 15%
  Microvessel Density (pixel^2): 13.4 ± 4.1 pixel^2
[2]; 10 uM
  % Inhibition (microvessel density): 22%
  Microvessel Density (pixel^2): 12.2 ± 2.5 pixel^2
[2]; 100 uM
  % Inhibition (microvessel density): 33%
  Microvessel Density (pixel^2): 10.6 ± 3.8 pixel^2
[2]
  anti-angiogenic effect (in words): Satisfactory anti-angiogenic effect
[2]; listed as racemic menthol propylene-carbonate
  anti-angiogenic effect (in words): inhibited microvessel formation in rat aortic ring assay in a dose dependent manner
[3]; 0.1 uM
  Cell Viability (%): 100%
[3]; 1.0 uM
  Cell Viability (%): 100%
[3]; 5.0 uM
  Cell Viability (%): 96.5%
[3]; 10.0 uM
  Cell Viability (%): 96.3%
[3]; 50.0 uM
  Cell Viability (%): 81.8%
[3]; Ha-CaT cells, up to 100 μM
  cytotoxic effect on normal cells (in words): non-toxic against normal cells
[4]; 1 μM
  Proliferation (%): 97.6%
  Average (relative cell number, XTT): 1.0623
[4]; 5 μM
  Proliferation (%): 93.9%
  Average (relative cell number, XTT): 1.0305
[4]; 10 μM
  Proliferation (%): 95.3%
  Average (relative cell number, XTT): 1.0425
[4]; 50 μM
  Proliferation (%): 97.6%
  Average (relative cell number, XTT): 1.0621
[4]; 100 μM
  Proliferation (%): 80.0%
  Average (relative cell number, XTT): 0.9121

## COc1ccc2c(c1)c(CC(=O)O)c(C)n2C(=O)c1ccc(Cl)cc1 [Indomethacin, reference compound]
[1]; positive control, 0.5 mg/ear, 4 hours after TPA
  Anti-inflammatory Effect (% of control): 96 % of control

## CC1CCC(C(C)C)C(O)C1 (centres unmarked) [(l)-Menthol, reference compound]
[1]
  anti-inflammatory effect (in words): no appreciable anti-inflammatory effect
[1]; [5]
  Anti-inflammatory Effect (% of control): 0 % of control

## C=C(C)C1CCC(C)CC1OC(=O)OCC(C)O (centres unmarked) [isopulegol propyleneglycol-carbonate]
[1]
  anti-inflammatory effect (in words): Satisfactory anti-inflammatory effects
[1]; [5]
  Anti-inflammatory Effect (% of control): 33 % of control
